# Values of other authors, collected in article PMC5516987, “Safety and pharmacodynamics of dalazatide, a Kv1.3 channel inhibitor, in the treatment of plaque psoriasis: A randomized phase 1b trial” (PLoS ONE, 2017).
# Experiments:
# [1] = 4-AP and related compounds
# From the text: One potassium channel blocking drug that has been tested in humans is the nonselective potassium channel inhibitor, 4-aminopyridine (4-AP, fampridine, dalfampridine). Various formulations of 4-AP have been evaluated for their potential to increase nerve conduction and improve function in spinal cord injury, autoimmune diseases involving the nervous system, and diseases of nerve conduction. The most commonly reported adverse events are paresthesia (perioral and digital), nausea, dizziness, headache, and insomnia. Although infrequent, the most serious toxicity reported in patients treated ...
# [2] = system: viral and bacterial infections; details: chronically treated animals, versus vehicle
# From the text: Dalazatide (previously referred to as ShK-186 and SL5) is a 37-amino acid synthetic peptide that is a specific inhibitor of the voltage-gated Kv1.3 potassium channel. It is a derivative of ShK, which was originally isolated from the venom of the sea anemone Stichodactyla helianthus. Human T cells rely on two potassium channels, Kv1.3 and KCa3.1 to maintain the calcium signaling required for their activation and differentiation, by maintaining a balance between calcium influx and potassium efflux. Chronically activated memory T cells that rely on upregulation of Kv1.3 expression for ...
Structure (SMILES),Crossing of the blood-brain barrier [1],Clearance of viral and bacterial infections [2]
"Nc1ccncc1 [4-AP, 4-aminopyridine]",readily cross the blood-brain barrier,–
C[C@@H]1C[C@H]2[C@@H]3CCC4=CC(=O)C=C[C@]4(C)[C@@]3(F)[C@@H](O)C[C@]2(C)[C@@]1(O)C(=O)CO [dexamethasone],–,significantly delayed clearance rate
